Laboratory results from US20240041042A1, “1-(PYRIDYL)-5-AZINYLPYRAZOLE DERIVATIVES, AND THEIR USE FOR CONTROL OF UNDESIRED PLANT GROWTH” (Bayer Aktiengesellschaft, priority 2020, published 2024).
Like-named read-outs stand apart in the source and are kept apart here.

What was measured:
Assay type in all cases: in vivo
[1] = system: Alopecurus myosuroides (ALOMY); experiment: Pre-emergence herbicidal action against ALOMY; conditions: 320 g/ha; scored visually after about 3 weeks; 100% = plants have died
Procedure, shortened: (§1)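 Greenhouse pot trial: seeds sown, soil-covered, sprayed before emergence with compound in water (0.5% additive; 600 l/ha; ≤320 g/ha). Scoring visual, ~3 weeks, 0–100% scale vs untreated.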

[2] = system: Amaranthus retroflexus (AMARE); experiment: Pre-emergence herbicidal action against AMARE; conditions: visual scoring after about 3 weeks vs untreated controls
Procedure, shortened: as §1

[3] = system: Lolium rigidum (LOLRI); experiment: Pre-emergence herbicidal action against LOLRI; conditions: dosage 320 g/ha
Procedure, shortened: as §1

[4] = system: Polygonum convolvulus (POLCO); experiment: Pre-emergence herbicidal action against POLCO; conditions: dosage 320 g/ha
Procedure, shortened: as §1

[5] = system: Viola tricolor (VIOTR); experiment: Pre-emergence herbicidal action against VIOTR; conditions: 320 g/ha, Viola tricolor
Procedure, shortened: as §1

[6] = system: Brassica napus (BRSNW); conditions: 80 g/ha, crop plant compatibility, in comparison to untreated controls
Procedure, shortened: (§2)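 Scoring: visual, % of untreated control, about 3 weeks after a pre-emergence application to the soil surface. Application used WP or EC formulations diluted in water with 0.5% additive at 600 l/ha; dosage levels are marked by suffixes a, b and c.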

[7] = system: Oryza sativa (ORYSA); conditions: pre-emergence, 80 g/ha, crop plant compatibility, in comparison to untreated controls
Procedure, shortened: as §2

[8] = system: Zea mays (ZEAMX); conditions: pre-emergence, crop plant compatibility, in comparison to untreated controls
Procedure, shortened: as §2

[9] = system: Abutilon theophrasti (ABUTH); experiment: Post-emergence herbicidal action against ABUTH; conditions: 320 g/ha, visual rating about 3 weeks after treatment vs untreated controls (100% = plants have died, 0% = like control plants)
Procedure, shortened: (§3)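 Values are percent visual activity (0% like control, 100% plants dead) after about 3 weeks in the greenhouse. Treatment: post-emergence spray at one-leaf stage, 600 l/ha spray volume, 0.5% additive, doses 320 g/ha or lower.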

[10] = system: Echinochloa crus-galli (ECHCG); experiment: Post-emergence herbicidal action against ECHCG
Procedure, shortened: as §3

[11] = system: Setaria viridis (SETVI); experiment: Post-emergence herbicidal action against SETVI; conditions: dosage 320 g/ha
Procedure, shortened: as §3

[12] = system: Verconica persica (VERPE); experiment: Post-emergence herbicidal action against VERPE; conditions: 320 g/ha, VERPE
Procedure, shortened: as §3

[13] = system: Oryza sativa (ORYSA); conditions: crop plant compatibility, 80 g/ha, effect in comparison to untreated controls
Procedure, shortened: (§4)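 One-leaf-stage crops (2–3 wk post-sowing, sandy loam, greenhouse) sprayed on green parts; 0.5% additive, 600 l/ha water. Rated by eye ~3 wk later, % vs untreated; suffixes a/b/c mark different dosages.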

[14] = system: Zea mays (ZEAMX); conditions: crop plant compatibility, 80 g/ha, effect vs untreated controls
Procedure, shortened: as §4

[15] = system: Matricaria inodora (MATIN); experiment: Pre-emergence herbicidal action against MATIN
Procedure, shortened: as §1

[16] = system: Setaria viridis (SETVI); experiment: Pre-emergence herbicidal action against SETVI; conditions: dosage 320 g/ha
Procedure, shortened: as §1

[17] = system: Verconica persica (VERPE); experiment: Pre-emergence herbicidal action against VERPE; conditions: dosage 320 g/ha
Procedure, shortened: as §1

[18] = system: Amaranthus retroflexus (AMARE); experiment: Post-emergence herbicidal action against AMARE
Procedure, shortened: as §3

[19] = system: Pharbitis purpurea (PHBPU); experiment: Post-emergence herbicidal action against PHBPU
Procedure, shortened: as §3

[20] = system: Polygonum convolvulus (POLCO); experiment: Post-emergence herbicidal action against POLCO; conditions: dosage 320 g/ha
Procedure, shortened: as §3

[21] = system: Triticum aestivum (TRZAS); conditions: crop plant compatibility, 80 g/ha, effect vs untreated controls
Procedure, shortened: as §4

[22] = system: Avena fatua (AVEFA); experiment: Pre-emergence herbicidal action against AVEFA; conditions: 320 g/ha, visual scoring after about 3 weeks vs untreated controls
Procedure, shortened: as §1

[23] = system: Alopecurus myosuroides (ALOMY); experiment: Post-emergence herbicidal action against ALOMY; conditions: 320 g/ha, visual rating about 3 weeks after treatment vs untreated controls (100% = plants have died, 0% = like control plants)
Procedure, shortened: as §3

[24] = system: Avena fatua (AVEFA); experiment: Post-emergence herbicidal action against AVEFA; conditions: 320 g/ha, visual rating about 3 weeks after treatment
Procedure, shortened: as §3

[25] = system: Digitaria sanguinalis (DIGSA); experiment: Pre-emergence herbicidal action against DIGSA; conditions: dosage 320 g/ha
Procedure, shortened: as §1

[26] = system: Viola tricolor (VIOTR); experiment: Post-emergence herbicidal action against VIOTR; conditions: 320 g/ha
Procedure, shortened: as §3

[27] = 320 g/ha, visual rating about 3 weeks after treatment

Row | Pre-emergence action against BRSNW in % [6] | Pre-emergence action against ORYSA in % [7] | Pre-emergence action against ZEAMX in % ([8]; 80 g/ha) | Post-emergence action against ORYSA in % [13] | Post-emergence action against ZEAMX in % [14] | Compound | Pre-emergence action against ALOMY [1] | Pre-emergence action against AMARE in % ([2]; 80 g/ha) | Pre-emergence action against AMARE in % ([2]; 320 g/ha) | Pre-emergence action against LOLRI in % [3] | Pre-emergence action against VIOTR in % [5] | Post-emergence action against ECHCG in % ([10]; dosage 320 g/ha) | Post-emergence action against SETVI in % [11] | Post-emergence action against VERPE in % [12] | Pre-emergence action against SETVI in % [16] | Post-emergence action against AMARE in % [18, 27] | Post-emergence action against PHBPU in % ([19]; dosage 320 g/ha) | Post-emergence action against POLCO in % [20] | Post-emergence action against ALOMY in % [23] | Post-emergence action against AVEFA in % [24] | other results
1 | 0% | 0% | 0% | 10% | 10% | COCCOC(=O)COc1nn(-c2ncccc2C(F)(F)F)c(-c2ccc(F)nc2)c1Br [Example I-378] | 80% | 80% | 90% | 90% | 90% | 80% | 80% | 80% |  |  |  |  |  |  | Pre-emergence action against POLCO in % [4]: 80%; Post-emergence action against ABUTH in % [9]: 80%
2 | 0% |  | 0% | 0% | 0% | COC(=O)CNC(=O)COc1nn(-c2ccccn2)c(-c2ccc(F)nc2)c1F [Example I-377] | 80% | 80% | 90% |  |  | 90% | 90% | 80% | 90% | 90% | 90% | 80% |  |  | Pre-emergence action against MATIN in % ([15]; dosage 80 g/ha): 80%; Pre-emergence action against MATIN in % ([15]; dosage 320 g/ha): 90%; Pre-emergence action against VERPE in % [17]: 80%; Pre-emergence action against ZEAMX in % ([8]; 320 g/ha): 0%; Post-emergence action against AMARE in % ([18]; 80 g/ha, visual rating about 3 weeks after treatment vs untreated controls (100% = plants have died, 0% = like control plants)): 80%; Post-emergence action against ECHCG in % ([10]; dosage 80 g/ha): 80%; Post-emergence action against TRZAS in % [21]: 0%
3 | 0% | 10% | 0% | 10% | 10% | COC(=O)CCOC(=O)COc1nn(-c2ncccc2F)c(-c2ccc(F)nc2)c1Cl [Example I-272] | 90% |  | 90% | 80% | 90% | 80% | 80% | 80% | 90% |  |  | 80% | 90% | 80% | Pre-emergence action against AVEFA in % [22]: 100%
4 | 0% |  | 0% | 0% |  | COC(=O)CCOC(=O)[C@@H](C)Oc1nn(-c2ccccn2)c(-c2ccc(Cl)nc2)c1Cl [Example I-245] | 90% |  | 80% | 90% | 80% |  |  |  |  | 80% | 90% | 80% | 80% | 80% | Pre-emergence action against DIGSA in % [25]: 90%; Post-emergence action against PHBPU in % ([19]; dosage 80 g/ha): 80%; Post-emergence action against VIOTR in % [26]: 80%
